According to patent publication US10654890B2, “Cyclic peptide derivative, method for preparing same and composition thereof” (priority 2014, dated 2020):

Key:
[1] = Water solubility; type: physicochemical
[2] = tested on: VGF gene; assay: VGF gene expression in culture astrocyte (real time PCR); type: cell-based, mouse; conditions: 25 μM; from 8 hours to 24 hours after the addition; p<0.05 vs before the addition; calibrated to GAPDH
Protocol: (§1) By adding the cyclic peptide derivative of 25 μM to an astrocyte of the secondary subculture, the influence on expression of the gene of NGF, GDNF, VFGF-A, BDNF, and VGF as a representative neurotrophic factor was determined over time.
(§2) Except that a cell suspension of an astrocyte of the secondary subculture was prepared to have cell concentration of 3×10^5 cells/ml and the time for exposing the astrocyte to the above 25 μM cyclic peptide derivative was set at 0, 1, 2, 4, 8, 12, and 24 hours, the astrocyte was cultured in the same order as above <6>. As a control group, LG-D-MEM (0% FBS) not added with any cyclic peptide derivative was used.
(§3) Each astrocyte which has been exposed to the cyclic peptide derivative during each time described above was collected, and then, by using RNeasy Mini Kit (QIAGEN), extraction and purification of total RNA were carried out. The extracted total RNA was quantified by using Nano Photometer (IMPLEN). For the reverse transcription reaction, cDNA was synthesized by reacting 500 ng of total RNA with PrimeScript RT Master Mix (TaKaRa) at 37° C. for 15 minutes using GeneAmp PCR System 9600 (PERKIN ELMER), and the reaction was terminated by heating for 5 seconds at 85° C. […]

[3] = tested on: NGF gene; assay: NGF gene expression in culture astrocyte (real time PCR); type: cell-based, mouse; conditions: 25 μM; from 8 hours to 24 hours after the addition; p<0.05 vs before the addition; calibrated to GAPDH
Protocol: as §1, §2, §3

[4] = tested on: senescence-accelerated model mouse SAMP8; assay: Damaged area ratio of body hair surface by scanning probe microscope; type: in vivo
Excerpt: As for the apparatus, tapping mode scanning probe microscope (SPM: SPA400, Hitachi High-Tech Science Corporation) was used.
As a sample, body hair in head and neck part of a mouse was collected by plucking from the origin, and the observation was made by using the tapping mode scanning probe microscope described above.

[5] = tested on: senescence-accelerated model mouse SAMP8; assay: Morris water maze test; type: in vivo; conditions: SAMP8, oral 25 μg/kg/day; vs SAMP8; p<0.05
Excerpt: As a mouse for an in vivo test of the cyclic peptide derivative, senescence-accelerated model mouse SAMP8 which is used as a cognitive disorder model animal of initial Alzheimer's disease accompanied with aging was selected, and as a control, SAMR1 mouse with normal aging was selected.
19-Week old male mice of SAMR1 and SAMP8 were purchased from Japan SLC, Inc., and divided into 5 groups, i.e., mouse group with normal aging (SAMR1), senescence-accelerated model mouse group (SAMP8), {P8+donepezil hydrochloride 1250 μg/kg/day} group as a positive control, and {P8+cyclic peptide derivative 2.5 μg/kg/day} group and {P8+cyclic peptide derivative 25 μg/kg/day} group as a test group. […] After 10 days of an acclimation period, all mice were provided with standard meal (MEQ, Oriental Yeast Company) and body weight of the animal was recorded everyday during the entire test period. […]
(3) {P8+donepezil hydrochloride 1250 μg/kg/day} group: As a positive control, donepezil hydrochloride (Sanyo Chemical Laboratories CO., LTD.) was dissolved in MQ and prepared to have a concentration of 1250 μg/kg (bodyweight), and then orally administered to a SAMP8 for 5 weeks by using a gastric sonde. The concentration was accurately calculated based on the bodyweight which has been measured every day. […]

## CCC1(C)Oc2cc(ccc2O)C(O)C(NC)C(=O)NC(C(C)C)C(=O)NC1C(=O)NC(CCC(=O)O)C(=O)O (stereo not drawn) [cyclic peptide derivative]
[1]
  water solubility: water soluble
[2]
  expression of the gene of VGF: increased
[3]
  expression of the gene of NGF: increased
[4]; SAMP8, oral 2.5 μg/kg/day
  damage ratio on a surface of mouse body hair: lowered to the same level as those of a mouse with normal aging
[4]; SAMP8, oral 25 μg/kg/day
  damage ratio on a surface of mouse body hair: lowered to the same level as those of a mouse with normal aging
[5]
  spatial learning ability (time in zone (%) in quadrant 1): significantly recovered
